Cilia disassembly data for 1 molecule are collected here from patent EP2241565A1, “Aurora kinase inhibitors compounds” (Universität Leipzig, priority 2009, dated 2010).

“Also recorded” adds a separate entry of the source.

The test system of the test is hTERT-RPE1 cells. As to the kind of experiment: Cilia disassembly assay. It counts as cell-based. Conditions: pretreatment 40 µM, serum stimulation after 48 h starvation. How it is done: Cilia assembly and disassembly assays were performed as described in Pugacheva et al., Cell 2007, 129, 1351-1363. […] For analysis of cilia disassembly, cilia were assembled by 48 h starvation in Opti-MEM, and disassembled by incubation in DMEM-10% serum. Cells were fixed after 2 and 4 h. […] To visualize the centrosomes and the cilia, fixed cells were immunostained with anti-γ-tubulin (Sigma GTU88) and anti-acetylated-tubulin (Sigma), and DNA was stained with Hoechst.

For `CC(C)Nc1nc(-c2ccco2)nc2ccc(C#CCO)cc12` [Compound (C), 3-(2-(Furan-2-yl)-4-(isoiproipylamino)quinazolin-6-yl)prop-2-yn-l-ol], the cilia disassembly result is on record as “strongly inhibited; also recorded: impaired”.
